Experimental data as given in ChEMBL document CHEMBL6153028, “Understanding the synergistic sensitization of natural products and antibiotics: An effective strategy to combat MRSA” (2025).

Assays:
Assay type in all cases: functional
Staphylococcus aureus [1] = assay: Antibacterial activity against methicillin-resistant Staphylococcus aureus ATCC 33592 assessed as reduction in bacterial growth measured for 24 hrs by CLSI protocol based two-fold serial dilution method
Staphylococcus aureus [2] = assay: Synergistic antibacterial activity against methicillin-resistant Staphylococcus aureus assessed as fractional inhibitory concentration index incubated for 24 hrs in presence of cefazolin by checkerboard assay
Staphylococcus aureus [3] = assay: Synergistic antimicrobial activity against methicillin resistant Staphylococcus aureus assessed as fractional inhibitory concentration index incubated for 24 hrs in presence of Oxacillin by checkerboard assay
Staphylococcus aureus [4] = assay: Synergistic antibacterial activity against methicillin-resistant Staphylococcus aureus assessed as fractional inhibitory concentration index incubated for 24 hrs in presence of Nafcillin by checkerboard assay
Staphylococcus aureus [5] = assay: Synergistic antibacterial activity against methicillin-resistant Staphylococcus aureus assessed as fractional inhibitory concentration index in presence of cefoxitin
Staphylococcus aureus [6] = assay: Synergistic antimicrobial activity against methicillin-resistant Staphylococcus aureus assessed as fractional inhibitory concentration index in presence of amoxicillin

Question: For `Oc1cc(O)c2c(c1)O[C@H](c1ccc(O)c(O)c1)[C@@H](O)C2` [CIANIDANOL], which MIC (Staphylococcus aureus [1]) is on record?
Answer: Its MIC is over 1020 µg/mL.

Question: How did the “fractional inhibitory concentration index (FICI)” value (Staphylococcus aureus [2]) turn out when `Cc1cc(O)c2c(=O)c3c(O)cc(O)c4c5c(O)cc(O)c6c(=O)c7c(O)cc(C)c8c1c2c(c34)c(c78)c65` [HYPERICIN] was run?
Answer: Its value is 0.19.

Question: And the “fractional inhibitory concentration index (FICI)” value (Staphylococcus aureus [3])?
Answer: The value was 0.1.

Question: And the “fractional inhibitory concentration index (FICI)” value (Staphylococcus aureus [4])?
Answer: The value was 0.19.

Question: What does the source list for `CC1(C)CCC2=C(O1)c1ccccc1C(=O)C2=O` [LAPACHONE]?
Answer: fractional inhibitory concentration index (FICI) (Staphylococcus aureus [5]): 0.25; fractional inhibitory concentration index (FICI) (Staphylococcus aureus [6]): 0.07
